Results as given in ChEMBL document CHEMBL5370547, “NSD3: Advances in cancer therapeutic potential and inhibitors research” (Eur J Med Chem, 2023).
Starred links: 1 amine or outer side, 2 acyl side, 3 side chain; linkers in the order of their positions; H or OH if unused. Non-standard residues stand in square brackets, D forms with d. Residues, ends and D or L forms follow the SMILES beside them. X1 = CCC[C@H](C)[C@H](N[*:1])C(=O)[*:2]

Assays:
[1] = target: T1, Histone-lysine N-methyltransferase NSD3 (Homo sapiens, UniProt Q9BZ95); assay: Inhibition of N-terminal His-TEV-tagged human NSD3 (1054 to 1285 residues ) expressed in Escherichia coli using 3[H] SAM as substrate measured after 30 mins by biochemical assay
T1 sequence (Q9BZ95 whole entry): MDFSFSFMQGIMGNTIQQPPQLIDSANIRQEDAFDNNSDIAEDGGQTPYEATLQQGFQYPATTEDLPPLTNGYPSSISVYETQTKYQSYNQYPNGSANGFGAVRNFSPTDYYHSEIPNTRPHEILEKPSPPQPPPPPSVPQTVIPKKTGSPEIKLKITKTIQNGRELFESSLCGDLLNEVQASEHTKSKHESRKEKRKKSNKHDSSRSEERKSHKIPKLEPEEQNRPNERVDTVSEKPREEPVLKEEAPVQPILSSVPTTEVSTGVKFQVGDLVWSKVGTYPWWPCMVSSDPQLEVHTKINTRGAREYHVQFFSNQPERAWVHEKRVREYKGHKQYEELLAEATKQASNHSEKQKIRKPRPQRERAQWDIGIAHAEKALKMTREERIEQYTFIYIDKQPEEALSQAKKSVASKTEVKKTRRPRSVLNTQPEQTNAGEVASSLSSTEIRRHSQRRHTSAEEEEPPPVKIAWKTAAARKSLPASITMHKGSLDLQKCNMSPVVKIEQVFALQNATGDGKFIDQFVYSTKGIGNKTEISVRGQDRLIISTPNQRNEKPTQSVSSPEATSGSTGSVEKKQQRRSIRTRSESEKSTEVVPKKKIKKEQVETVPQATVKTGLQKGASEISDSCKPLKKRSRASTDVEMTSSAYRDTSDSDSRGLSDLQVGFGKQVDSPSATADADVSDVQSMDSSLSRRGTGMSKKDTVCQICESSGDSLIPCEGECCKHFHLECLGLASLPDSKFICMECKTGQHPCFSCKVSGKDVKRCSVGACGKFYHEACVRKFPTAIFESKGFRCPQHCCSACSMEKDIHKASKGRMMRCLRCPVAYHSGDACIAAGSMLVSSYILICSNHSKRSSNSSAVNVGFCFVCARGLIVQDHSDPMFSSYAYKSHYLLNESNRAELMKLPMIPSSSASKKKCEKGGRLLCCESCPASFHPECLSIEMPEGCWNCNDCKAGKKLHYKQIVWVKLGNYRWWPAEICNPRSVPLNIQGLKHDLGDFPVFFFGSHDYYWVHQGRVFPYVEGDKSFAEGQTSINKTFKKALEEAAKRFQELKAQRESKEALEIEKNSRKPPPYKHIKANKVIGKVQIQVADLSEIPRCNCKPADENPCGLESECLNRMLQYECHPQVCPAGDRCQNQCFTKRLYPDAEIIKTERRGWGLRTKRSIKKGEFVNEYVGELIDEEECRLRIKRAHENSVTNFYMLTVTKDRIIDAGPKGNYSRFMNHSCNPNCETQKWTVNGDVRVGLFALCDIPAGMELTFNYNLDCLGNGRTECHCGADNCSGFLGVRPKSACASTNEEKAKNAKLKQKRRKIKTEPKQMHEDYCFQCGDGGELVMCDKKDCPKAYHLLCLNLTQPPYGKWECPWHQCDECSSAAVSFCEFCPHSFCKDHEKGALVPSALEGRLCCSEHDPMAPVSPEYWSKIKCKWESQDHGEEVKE

[2] = target: T2, Histone-lysine N-methyltransferase NSD2 (Homo sapiens, UniProt O96028); assay: Inhibition of N-terminal GST-tagged human NSD2 (941 to 1240 residues ) expressed in Escherichia coli using 3[H] SAM as substrate measured after 30 mins by biochemical assay
T2 sequence (O96028 whole entry): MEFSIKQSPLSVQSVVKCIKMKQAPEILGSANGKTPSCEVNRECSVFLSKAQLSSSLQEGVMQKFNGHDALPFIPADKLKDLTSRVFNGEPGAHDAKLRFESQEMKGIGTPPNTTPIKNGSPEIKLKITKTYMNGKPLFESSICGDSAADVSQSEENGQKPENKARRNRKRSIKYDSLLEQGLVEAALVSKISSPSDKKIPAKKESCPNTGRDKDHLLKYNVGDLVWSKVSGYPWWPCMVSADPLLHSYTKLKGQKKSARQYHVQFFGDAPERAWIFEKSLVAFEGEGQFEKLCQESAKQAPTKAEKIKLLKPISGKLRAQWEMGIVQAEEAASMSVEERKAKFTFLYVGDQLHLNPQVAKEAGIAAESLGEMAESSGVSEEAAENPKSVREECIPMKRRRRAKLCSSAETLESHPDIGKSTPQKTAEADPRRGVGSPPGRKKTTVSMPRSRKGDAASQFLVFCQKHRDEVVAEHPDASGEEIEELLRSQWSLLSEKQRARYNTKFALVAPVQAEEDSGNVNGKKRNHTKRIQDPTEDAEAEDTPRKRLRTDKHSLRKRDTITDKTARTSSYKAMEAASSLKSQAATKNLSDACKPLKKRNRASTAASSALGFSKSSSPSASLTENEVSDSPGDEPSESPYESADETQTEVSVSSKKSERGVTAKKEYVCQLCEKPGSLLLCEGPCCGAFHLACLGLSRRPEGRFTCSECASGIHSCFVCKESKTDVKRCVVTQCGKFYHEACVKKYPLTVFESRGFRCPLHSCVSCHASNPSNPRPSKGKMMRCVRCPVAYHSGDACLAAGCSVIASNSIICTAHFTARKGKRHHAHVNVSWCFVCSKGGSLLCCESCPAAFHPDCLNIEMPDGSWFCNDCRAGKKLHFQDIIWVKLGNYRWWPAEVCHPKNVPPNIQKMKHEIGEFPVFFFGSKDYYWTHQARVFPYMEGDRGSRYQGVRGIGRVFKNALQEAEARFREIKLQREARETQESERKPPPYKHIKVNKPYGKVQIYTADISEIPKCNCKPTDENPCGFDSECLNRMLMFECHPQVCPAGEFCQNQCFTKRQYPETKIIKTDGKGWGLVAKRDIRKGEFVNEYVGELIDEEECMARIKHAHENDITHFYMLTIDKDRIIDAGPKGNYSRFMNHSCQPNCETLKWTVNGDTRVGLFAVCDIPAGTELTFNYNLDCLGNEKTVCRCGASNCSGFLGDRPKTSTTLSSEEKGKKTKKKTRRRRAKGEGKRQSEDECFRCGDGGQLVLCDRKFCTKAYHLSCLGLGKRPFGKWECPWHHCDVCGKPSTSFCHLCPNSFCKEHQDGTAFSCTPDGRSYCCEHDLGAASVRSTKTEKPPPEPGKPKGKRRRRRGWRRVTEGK

[3] = target: T1, Histone-lysine N-methyltransferase NSD3; assay: Inhibition of NSD3 PWWP1 domain (unknown origin) assessed as […] by SPR analysis
[4] = target: T1, Histone-lysine N-methyltransferase NSD3; assay: Inhibition of NSD3 PWWP1 domain (unknown origin) by TR-FRET assay
EOL1 = assay: Antiproliferative activity against human EOL1 cells assessed as cell growth inhibition measured after 8 days; format: functional, cell-based; settings: EOL1, 192 h
RS4-11 = assay: Antiproliferative activity against human RS4-11 cells assessed as cell growth inhibition measured after 8 days; format: functional, cell-based; settings: RS4-11, 192 h
[5] = target: von Hippel-Lindau disease tumor suppressor/Histone-lysine N-methyltransferase NSD3 (Homo sapiens, UniProt P40337+Q9BZ95); assay: PROTAC activity at VHL/NSD3 […] domain in human MOLM-13 cells assessed as […] measured after 48 hrs by immunoblotting analysis; format: cell-based
Chain of von Hippel-Lindau disease tumor suppressor/Histone-lysine N-methyltransferase NSD3 (P40337 whole entry, one chain of several): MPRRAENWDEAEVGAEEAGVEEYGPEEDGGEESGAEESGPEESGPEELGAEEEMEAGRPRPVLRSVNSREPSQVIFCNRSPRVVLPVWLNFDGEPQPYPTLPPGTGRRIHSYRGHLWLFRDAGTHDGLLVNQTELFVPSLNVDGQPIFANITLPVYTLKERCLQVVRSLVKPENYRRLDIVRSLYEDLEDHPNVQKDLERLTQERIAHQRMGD

MM1.S = assay: Antiproliferative activity against human MM1.S cells assessed as cell growth inhibition measured after 8 days; format: functional, cell-based; settings: 192 h
[6] = target: T1, Histone-lysine N-methyltransferase NSD3; assay: Binding affinity to human NSD3 […] domain (247 to 402 residues) expressed in Escherichia coli assessed as dissociation constant
[7] = target: T3, Histone-lysine N-methyltransferase, H3 lysine-36 specific (Homo sapiens, UniProt Q96L73); assay: Inhibition of N-terminal polyhistidine-tagged recombinant human NSD1 (1538 to 2696 residues) expressed in baculovirus infected insect cell using SAM as substrate preincubated for 20 mins followed by substrate addition measured after 1 hrs by hotspot assay
T3 sequence (Q96L73 whole entry, the tested form may be a part): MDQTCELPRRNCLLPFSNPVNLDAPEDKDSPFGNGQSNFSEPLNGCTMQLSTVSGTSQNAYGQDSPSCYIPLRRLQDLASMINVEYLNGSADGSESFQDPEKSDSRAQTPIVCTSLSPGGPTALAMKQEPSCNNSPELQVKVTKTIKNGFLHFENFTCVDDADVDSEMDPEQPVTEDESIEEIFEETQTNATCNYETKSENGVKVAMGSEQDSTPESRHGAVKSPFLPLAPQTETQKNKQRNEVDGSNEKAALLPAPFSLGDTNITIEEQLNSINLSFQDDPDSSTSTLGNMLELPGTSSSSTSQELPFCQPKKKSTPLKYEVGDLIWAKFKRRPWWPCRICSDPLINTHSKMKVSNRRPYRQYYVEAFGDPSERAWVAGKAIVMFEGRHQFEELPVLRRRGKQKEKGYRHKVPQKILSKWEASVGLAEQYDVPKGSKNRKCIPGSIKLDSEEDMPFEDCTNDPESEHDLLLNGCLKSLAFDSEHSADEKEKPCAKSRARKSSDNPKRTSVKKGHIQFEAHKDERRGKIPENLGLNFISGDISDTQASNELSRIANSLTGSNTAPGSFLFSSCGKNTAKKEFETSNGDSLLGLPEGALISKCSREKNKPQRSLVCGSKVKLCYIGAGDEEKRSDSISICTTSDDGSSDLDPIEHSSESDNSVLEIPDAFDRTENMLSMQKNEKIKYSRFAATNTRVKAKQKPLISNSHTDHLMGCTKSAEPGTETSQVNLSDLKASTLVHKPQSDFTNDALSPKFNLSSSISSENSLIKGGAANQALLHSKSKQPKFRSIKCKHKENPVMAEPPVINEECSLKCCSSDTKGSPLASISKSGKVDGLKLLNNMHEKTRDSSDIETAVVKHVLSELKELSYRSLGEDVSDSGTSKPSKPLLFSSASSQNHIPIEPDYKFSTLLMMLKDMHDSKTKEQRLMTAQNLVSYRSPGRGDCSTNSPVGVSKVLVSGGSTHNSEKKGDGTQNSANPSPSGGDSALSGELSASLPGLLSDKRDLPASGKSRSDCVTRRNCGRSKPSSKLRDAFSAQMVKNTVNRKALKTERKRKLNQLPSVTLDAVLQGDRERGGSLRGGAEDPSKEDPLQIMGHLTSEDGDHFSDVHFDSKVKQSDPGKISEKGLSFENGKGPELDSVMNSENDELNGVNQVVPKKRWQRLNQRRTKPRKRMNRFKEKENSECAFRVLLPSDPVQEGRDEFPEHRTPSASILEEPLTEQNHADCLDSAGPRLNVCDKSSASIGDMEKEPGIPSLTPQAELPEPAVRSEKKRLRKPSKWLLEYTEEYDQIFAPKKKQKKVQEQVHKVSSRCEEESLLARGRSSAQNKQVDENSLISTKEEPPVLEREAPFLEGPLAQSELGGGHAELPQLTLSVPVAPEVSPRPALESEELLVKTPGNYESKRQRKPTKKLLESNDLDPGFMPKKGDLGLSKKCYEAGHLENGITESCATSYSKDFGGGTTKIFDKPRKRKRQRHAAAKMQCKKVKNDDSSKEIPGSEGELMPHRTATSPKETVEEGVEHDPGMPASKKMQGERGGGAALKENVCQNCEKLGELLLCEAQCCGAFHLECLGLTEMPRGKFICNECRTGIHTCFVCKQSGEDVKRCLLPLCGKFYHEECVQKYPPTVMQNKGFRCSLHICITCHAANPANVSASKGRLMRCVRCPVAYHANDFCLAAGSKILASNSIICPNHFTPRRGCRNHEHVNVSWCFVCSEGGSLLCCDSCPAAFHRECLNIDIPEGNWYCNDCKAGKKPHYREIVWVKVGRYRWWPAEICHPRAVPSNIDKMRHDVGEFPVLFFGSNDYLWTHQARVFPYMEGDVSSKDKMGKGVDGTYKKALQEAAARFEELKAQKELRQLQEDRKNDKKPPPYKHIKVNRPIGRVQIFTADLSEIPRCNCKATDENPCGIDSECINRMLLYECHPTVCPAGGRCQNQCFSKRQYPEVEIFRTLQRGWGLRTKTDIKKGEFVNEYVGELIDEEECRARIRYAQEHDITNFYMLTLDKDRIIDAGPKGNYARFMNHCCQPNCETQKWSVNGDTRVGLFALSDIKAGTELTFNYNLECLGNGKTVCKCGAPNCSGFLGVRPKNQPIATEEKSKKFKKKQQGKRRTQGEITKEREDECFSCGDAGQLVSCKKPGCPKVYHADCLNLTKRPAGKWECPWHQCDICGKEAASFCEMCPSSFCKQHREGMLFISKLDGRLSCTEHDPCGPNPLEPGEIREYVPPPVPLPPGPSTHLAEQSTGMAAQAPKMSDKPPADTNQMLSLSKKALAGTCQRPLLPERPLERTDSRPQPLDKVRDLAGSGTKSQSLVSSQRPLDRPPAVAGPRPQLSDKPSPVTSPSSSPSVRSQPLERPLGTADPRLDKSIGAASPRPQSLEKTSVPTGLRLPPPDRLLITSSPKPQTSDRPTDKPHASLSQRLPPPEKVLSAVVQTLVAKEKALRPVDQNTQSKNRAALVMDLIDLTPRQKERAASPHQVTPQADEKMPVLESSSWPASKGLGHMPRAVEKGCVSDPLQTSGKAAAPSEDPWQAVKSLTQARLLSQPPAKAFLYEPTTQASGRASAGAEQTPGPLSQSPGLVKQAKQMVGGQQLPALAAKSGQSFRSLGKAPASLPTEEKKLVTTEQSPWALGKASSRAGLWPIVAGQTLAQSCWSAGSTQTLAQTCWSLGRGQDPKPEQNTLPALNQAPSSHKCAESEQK

[8] = target: T1, Histone-lysine N-methyltransferase NSD3; assay: Inhibition of N-terminal GST-fused recombinant human NSD3 (1021 to 1322 residues) expressed in Escherichia coli using SAM as substrate preincubated for 20 mins followed by substrate addition measured after 1 hrs by hotspot assay
[9] = target: T2, Histone-lysine N-methyltransferase NSD2; assay: Inhibition of human NSD2 overexpressed in Escherichia coli BL21(DE3) using nucleosome as substrate by SPA analysis
[10] = target: T1, Histone-lysine N-methyltransferase NSD3; assay: Inhibition of human NSD3 overexpressed in Escherichia coli BL21(DE3) using nucleosome as substrate by SPA analysis
[11] = target: T3, Histone-lysine N-methyltransferase, H3 lysine-36 specific; assay: Inhibition of human NSD1 overexpressed in Escherichia coli BL21(DE3) using nucleosome as substrate by SPA analysis
[12] = Antiproliferative activity against human RN 22 cells assessed as cell growth inhibition measured after 6 days by RealTime-Glow MT cell viability assay; format: functional, cell-based; settings: RN 22, 144 h
[13] = Inhibition of C-terminal NanoLuc-tagged human NSD3 PWWP1 domain/ C-terminal HaloTag fused histone H3 (unknown origin) interaction transfected in human U2OS cells; format: cell-based
MOLM-13 [14] = assay: Antiproliferative activity against human MOLM-13 cells assessed as cell growth inhibition measured after 6 days by RealTime-Glow MT cell viability assay; format: functional, cell-based; settings: MOLM-13, 144 h
MOLM-13 [15] = assay: Antiproliferative activity against human MOLM-13 cells assessed as cell growth inhibition measured after 6 days in presence of JQ1 by RealTime-Glow MT cell viability assay; format: functional, cell-based; settings: MOLM-13, 144 h

Which results are given for CCC[C@H](C)[C@H](NC(=O)[C@@H](NC(=O)CNC(C)=O)C(C)C)C(=O)N[C@@H](CCCNC(=N)N)C(=O)N[C@H](C(N)=O)[C@@H](C)CC (Ac-GV[X1]RI-NH2)?
IC50 [1]: 3.2 µM; IC50 [2]: 22 µM

Which Kd [3] does the source give for Cc1noc(C)c1-c1ncn(C)c1-c1ccnc2cc(F)ccc12 here?
Its Kd is 6.8 µM.

And the IC50 [4]?
The IC50 was 1.9 µM.

Which results are given for Cc1cc(CNCCCC(=O)NCCCCCCCCC(=O)N[C@H](C(=O)N2C[C@@H](O)C[C@@H]2C(=O)N[C@H](C)c2ccc(-c3scnc3C)cc2)C(C)(C)C)cc(C)c1-c1ncn(C)c1-c1ccnc2cc(F)ccc12?
EC50 (EOL1): 2300 nM; EC50 (RS4-11): 3.5 µM; EC50 [5]: 4.9 µM; EC50 (MM1.S): 3.3 µM; Kd [6]: 1300 nM

With O=C1C(Cl)=C(NCCN2CCOCC2)C(=O)c2ncccc21 as the compound, how does the IC50 [7] read?
Its IC50 is 110 nM.

What about the IC50 [8] of the same compound?
Its IC50 is 260 nM.

Which results are given for CN1C(=O)[C@@]23C[C@]4([C@]56C[C@@]78SS[C@@](CO)(C(=O)N7[C@H]5Nc5ccccc56)N(C)C8=O)c5ccccc5N[C@@H]4N2C(=O)[C@]1(CO)SS3 [CHAETOCIN]?
IC50 [9]: 6 µM; IC50 [10]: 11 µM; IC50 [8]: 3200 nM; IC50 [11]: 16 µM

With Nc1ncnc2c1ncn2[C@@H]1O[C@H](C[C@@H](N)CC[C@H](N)C(=O)O)[C@@H](O)[C@H]1O [SINEFUNGIN] as the compound, how does the IC50 [11] read?
The IC50 was 46 µM.

Which results are given for Cc1cc(CN)cc(C)c1-c1ncn(C)c1-c1ccncc1?
Kd [3]: 9.7 µM; IC50 [4]: 5.2 µM

For Cc1cc(CN)cc(C)c1-c1ncn(C)c1-c1ccnc2cc(F)ccc12, which IC50 [12] is on record?
The IC50 was 13 µM.

And the IC50 [13]?
Its IC50 is 1200 nM.

What about the IC50 (MOLM-13 [14]) of the same compound?
The IC50 was 26.8 µM.

And the IC50 (MOLM-13 [15])?
The IC50 was 139 nM.

With Cc1ccc(C(=O)Nc2ccc(S(=O)(=O)O)c3cc(S(=O)(=O)O)cc(S(=O)(=O)O)c23)cc1NC(=O)c1cccc(NC(=O)Nc2cccc(C(=O)Nc3cc(C(=O)Nc4ccc(S(=O)(=O)O)c5cc(S(=O)(=O)O)cc(S(=O)(=O)O)c45)ccc3C)c2)c1 [SURAMIN] as the compound, how does the IC50 [9] read?
The IC50 was 21 µM.

What about the IC50 [10] of the same compound?
The IC50 was 12 µM.
